Assay results reported in patent publication US20080004253A1, “Thiazolopyrimidine modulators of TRPV1” (priority 2006, published 2008).

Columns and labels:
[1] = target: T1, human TRPV1 (Homo sapiens, UniProt Q8NER1); test: Functional assay: block of capsaicin-induced Ca2+ influx, human assay (hTRPV1/HEK293, FLIPR); format: cell-based; conditions: hTRPV1/HEK293 cells, 150 nM capsaicin challenge, Fluo-3 fluorescence; mean; > value = solubility limit in assay medium
T1 construct: expressed in transfected cells; host or cells: HEK293 (hTRPV1/HEK293), zeocin selection
T1 sequence (Q8NER1 whole entry): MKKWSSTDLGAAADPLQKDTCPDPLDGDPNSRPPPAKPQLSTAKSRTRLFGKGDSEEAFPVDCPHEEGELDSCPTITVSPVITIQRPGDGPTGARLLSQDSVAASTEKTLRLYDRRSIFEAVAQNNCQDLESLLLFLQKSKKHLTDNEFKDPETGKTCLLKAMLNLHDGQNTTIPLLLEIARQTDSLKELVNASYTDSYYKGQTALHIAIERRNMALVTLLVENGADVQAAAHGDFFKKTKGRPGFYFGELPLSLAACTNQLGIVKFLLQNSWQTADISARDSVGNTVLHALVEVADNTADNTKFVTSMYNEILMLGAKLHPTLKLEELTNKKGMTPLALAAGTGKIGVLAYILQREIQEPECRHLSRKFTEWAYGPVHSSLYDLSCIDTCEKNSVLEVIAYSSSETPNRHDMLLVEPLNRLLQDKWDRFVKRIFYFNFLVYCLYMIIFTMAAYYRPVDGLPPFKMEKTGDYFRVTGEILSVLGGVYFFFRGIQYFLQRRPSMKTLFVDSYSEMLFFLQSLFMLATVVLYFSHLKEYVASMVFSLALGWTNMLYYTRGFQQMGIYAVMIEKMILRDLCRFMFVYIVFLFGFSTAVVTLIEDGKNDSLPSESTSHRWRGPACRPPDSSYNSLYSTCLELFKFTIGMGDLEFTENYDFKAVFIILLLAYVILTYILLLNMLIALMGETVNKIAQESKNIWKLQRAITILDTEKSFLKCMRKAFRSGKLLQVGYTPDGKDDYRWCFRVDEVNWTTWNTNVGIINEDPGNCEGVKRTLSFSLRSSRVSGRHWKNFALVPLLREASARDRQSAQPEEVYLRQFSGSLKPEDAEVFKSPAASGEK
Procedure, shortened: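 HEK293 cells stably expressing human TRPV1, fluo3-loaded, preincubated 30 min with compound (serial 3-fold dilutions from 10 μM, duplicate) in 20 μM Ca2+ buffer. Capsaicin response taken as fluo3 fluorescence change before vs 100 s after agonist; IC50 by non-linear regression, mean values; free base or TFA salt.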

[2] = target: T2, rat TRPV1 (Rattus norvegicus, UniProt O35433); test: Functional assay: block of capsaicin-induced Ca2+ influx, rat assay (rTRPV1/HEK293, FLIPR); format: cell-based; conditions: rTRPV1/HEK293 cells, capsaicin challenge, Fluo-3 fluorescence; mean; > value = solubility limit in assay medium
T2 construct: expressed in transfected cells; host or cells: HEK293 (rTRPV1/HEK293), geneticin selection
T2 sequence (O35433 whole entry): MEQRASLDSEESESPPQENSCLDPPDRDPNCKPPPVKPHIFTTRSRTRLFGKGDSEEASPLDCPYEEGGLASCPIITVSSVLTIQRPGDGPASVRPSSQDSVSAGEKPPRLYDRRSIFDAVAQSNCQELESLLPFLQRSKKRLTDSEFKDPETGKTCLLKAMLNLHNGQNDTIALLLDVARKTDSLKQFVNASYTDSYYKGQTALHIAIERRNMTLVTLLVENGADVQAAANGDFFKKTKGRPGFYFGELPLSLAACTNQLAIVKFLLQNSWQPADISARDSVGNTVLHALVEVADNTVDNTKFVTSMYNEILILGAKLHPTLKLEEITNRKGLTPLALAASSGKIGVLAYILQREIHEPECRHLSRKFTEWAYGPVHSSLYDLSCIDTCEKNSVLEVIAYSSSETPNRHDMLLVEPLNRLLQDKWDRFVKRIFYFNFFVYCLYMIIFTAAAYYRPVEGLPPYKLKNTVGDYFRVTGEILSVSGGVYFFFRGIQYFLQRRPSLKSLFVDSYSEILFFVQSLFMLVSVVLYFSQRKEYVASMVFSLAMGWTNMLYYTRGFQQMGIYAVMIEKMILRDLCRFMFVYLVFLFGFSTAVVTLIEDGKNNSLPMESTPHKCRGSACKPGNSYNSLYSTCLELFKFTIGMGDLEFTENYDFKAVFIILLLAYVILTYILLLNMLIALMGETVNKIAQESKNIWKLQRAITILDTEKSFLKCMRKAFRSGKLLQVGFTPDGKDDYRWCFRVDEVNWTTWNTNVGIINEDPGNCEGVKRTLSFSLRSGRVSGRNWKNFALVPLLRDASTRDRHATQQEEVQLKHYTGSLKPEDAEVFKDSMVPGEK
Procedure, shortened: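 Compounds, as free base or TFA salt, tested from 10 μM in three-fold steps on rTRPV1-transfected HEK293 cells, with 30 min preincubation in low-calcium (20 μM) buffer. Capsaicin-evoked Ca2+ influx measured by FLIPR fluo3 signal before and 100 s after addition. Averaged IC50 from non-linear fits.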

Row | IC50 [1] [nM] | IC50 [2] [nM] | Structure (SMILES)
1 | 7 | 2 | CC(C)C1CCCN1c1nc(Nc2ccc(C(F)(F)F)cc2)c2nc(Nc3c(Cl)cccc3Cl)sc2n1 (racemic) [Example 89, (racemic)-N^2-(2,6-Dichloro-phenyl)-5-(2-isopropyl-pyrrolidin-1-yl)-N^7-(4-trifluoromethyl-phenyl)-thiazolo[5,4-d]pyrimidine-2,7-diamine]
2 | 9740 | > 20000 | CS(=O)(=O)c1ccc(Nc2ncnc3sc(Nc4ccccc4S(C)(=O)=O)nc23)cc1 [Example 198, N^2-(2-Methanesulfonyl-phenyl)-N^7-(4-methanesulfonyl-phenyl)-thiazolo[5,4-d]pyrimidine-2,7-diamine]
3 | 223 | 215 | FC(F)(F)c1ccc(Nc2ncnc3sc(Nc4c(Cl)cc(CN5CCOCC5)cc4Cl)nc23)cc1 [Example 238, N^2-(2,6-Dichloro-4-morpholin-4-ylmethyl-phenyl)-N^7-(4-trifluoromethyl-phenyl)-thiazolo[5,4-d]pyrimidine-2,7-diamine]
4 | 1 | 1 | O=S(=O)(c1ccc(Nc2ncnc3sc(Nc4c(Cl)cccc4Cl)nc23)cc1)N1CCCC1 [Example 76, N^2-(2,6-Dichloro-phenyl)-N^7-[4-(pyrrolidine-1-sulfonyl)-phenyl]-thiazolo[5,4-d]pyrimidine-2,7-diamine]
5 | 431 | 221 | Cc1cccc(C)c1Nc1nc2c(Nc3ccc(F)cc3)ncnc2s1 [Example 144, N^2-(2,6-Dimethyl-phenyl)-N^7-(4-fluoro-phenyl)-thiazolo[5,4-d]pyrimidine-2,7-diamine]
6 | 138 | 59 | CSc1nc(Nc2ccc(S(=O)(=O)N(C)C)cc2)c2nc(Nc3c(Cl)cccc3Cl)sc2n1 [Example 127, 4-[2-(2,6-Dichloro-phenylamino)-5-methylsulfanyl-thiazolo[5,4-d]pyrimidin-7-ylamino]-N,N-dimethyl-benzenesulfonamide]
7 | > 20000 | 17300 | Cc1cccc(C)c1Nc1nc2c(Nc3ccc(C(N)=O)cc3)ncnc2s1 [Example 169, 4-[2-(2,6-Dimethyl-phenylamino)-thiazolo[5,4-d]pyrimidin-7-ylamino]-benzamide]
8 | 39 | 13 | CSc1ccc(Nc2nc(C)nc3sc(Nc4c(C)cccc4C)nc23)cc1 [Example 114, N^2-(2,6-Dimethyl-phenyl)-5-methyl-N^7-(4-methylsulfanyl-phenyl)-thiazolo[5,4-d]pyrimidine-2,7-diamine]
9 | 567 | 135 | CS(=O)(=O)c1ccc(Nc2ncnc3sc(Nc4ccccc4C(F)(F)F)nc23)cc1 [Example 226, N^7-[4-(Methylsulfonyl)phenyl]-N^2-[2-(trifluoromethyl)phenyl][1,3]thiazolo[5,4-d]pyrimidine-2,7-diamine]
10 | 15 | 8 | Fc1cc(Nc2ncnc3sc(Nc4c(Cl)cccc4Cl)nc23)ccc1C(F)(F)F [Example 215, N^2-(2,6-Dichloro-phenyl)-N^7-(3-fluoro-4-trifluoromethyl-phenyl)-thiazolo[5,4-d]pyrimidine-2,7-diamine]
11 | 63 | 33 | FC(F)(F)c1ccc(Nc2nc(N3CCCCC3)nc3sc(Nc4c(Cl)cccc4Cl)nc23)cc1 [Example 54, N^2-(2,6-Dichloro-phenyl)-5-piperidin-1-yl-N^7-(4-trifluoromethyl-phenyl)-thiazolo[5,4-d]pyrimidine-2,7-diamine]
12 | 18 | 22 | Cc1nc(Nc2ccc(C(F)(F)F)nc2)c2nc(Nc3c(C)cccc3C)sc2n1 [Example 246, N^2-(2,6-Dimethyl-phenyl)-5-methyl-N^7-(6-trifluoromethyl-pyridin-3-yl)-thiazolo[5,4-d]pyrimidine-2,7-diamine]
13 | 104 | 76 | FC(F)(F)c1ccc(Nc2ncnc3sc(Nc4ccccc4C(F)(F)F)nc23)cn1 [Example 219, N^2-[2-(Trifluoromethyl)phenyl]-N^7-[6-(trifluoromethyl)pyridin-3-yl][1,3]thiazolo[5,4-d]pyrimidine-2,7-diamine]
14 | 18 | 19 | Cc1nc(Nc2ccc(S(=O)(=O)C(C)C)cc2)c2nc(Nc3c(C)cccc3C)sc2n1 [Example 102, N^2-(2,6-Dimethyl-phenyl)-5-methyl-N^7-[4-(Propane-2-sulfonyl)-phenyl]-thiazolo[5,4-d]pyrimidine-2,7-diamine]
15 | 1090 | 70 | Cc1nc(NC2CCC(C(C)(C)C)CC2)c2nc(Nc3c(Cl)cccc3Cl)sc2n1 (mixture of isomers) [Example 8, N^7-(4-tert-Butyl-cyclohexyl)-N^2-(2,6-dichloro-phenyl)-5-methyl-thiazolo[5,4-d]pyrimidine-2,7-diamine]
